SMILES strings stand for the structures. pIC50: −log10 of the molar value.

The target in the experiment is T1, squalene synthase (Homo sapiens, UniProt P37268).
T1 construct: A microsome fraction was prepared from human-hepatoma(Hep G2) cells; endogenous in cells; host or cells: Hep G2 (human hepatoma) cells, washed microsome fraction
T1 sequence (P37268 1-417): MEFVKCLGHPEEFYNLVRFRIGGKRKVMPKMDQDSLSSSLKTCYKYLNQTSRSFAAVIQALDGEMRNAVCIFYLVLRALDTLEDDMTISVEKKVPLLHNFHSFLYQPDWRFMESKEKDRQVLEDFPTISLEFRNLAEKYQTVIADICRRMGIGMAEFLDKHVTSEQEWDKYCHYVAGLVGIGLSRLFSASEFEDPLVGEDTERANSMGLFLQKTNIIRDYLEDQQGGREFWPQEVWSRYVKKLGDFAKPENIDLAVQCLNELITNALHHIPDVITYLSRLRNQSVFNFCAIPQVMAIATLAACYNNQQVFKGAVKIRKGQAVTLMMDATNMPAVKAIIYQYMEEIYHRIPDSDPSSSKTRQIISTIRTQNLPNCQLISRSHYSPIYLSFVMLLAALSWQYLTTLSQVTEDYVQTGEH
Briefly: Inhibitory activities against squalene synthase. It is filed as biochemical. Particulars: microsome fraction from human hepatoma (Hep G2) cells; 10 μM [3H]-farnesyl pyrophosphate; pH 7.4; 37° C., 20 minutes; read-out: 50% inhibitory concentration against squalene synthase activity (IC50). The procedure:
Inhibitory activities against squalene synthase (1) Preparation of a microsome fraction A microsome fraction was prepared from human-hepatoma(Hep G2) cells by the method of Shechter et al disclosed in J. Biol. Chem., 267, 8628 (1992). Namely, Hep G2 cells were homogenized in the presence of a 0.3M sucrose-1 mM DTT-1 mM EDTA-10 mM Hepes buffer solution (pH 7.4) and various protease inhibitors, and subjected to centrifugal separation at 2000×g for 5 minutes and 10000×g for 15 minutes. The obtained supernatant was further subjected to centrifugal separation at 105000×g for 60 minutes, whereupon the precipitated residue was obtained. This precipitated residue was suspended in the above buffer solution containing various protease inhibitors, and the suspension was further subjected to centrifugal separation at 105000×g for 30 minutes to wash the precipitated residue. This washing operation was repeated three times. The finally obtained precipitated residue was taken as a microsome fraction, which was suspended in the above buffer solution containing no such various protease inhibitors, and the suspension was used for measuring the enzyme activities. (2) Method for measuring squalene synthase activities The enzymatic reaction of the squalene synthase was conducted in accordance with the method of Shechter et al disclosed in J. Biol. Chem., 267, 8628 (1992). […] Biochem., 203, 310 (1992). […] 50% inhibitory concentration against squalene synthase activity
As to `C[C@@H](NC(=O)CC(CC(=O)O)C(=O)O)[C@H](Cc1ccc2ccccc2c1)c1ccc(-c2ccccc2)cc1` (relative stereo) [Example 32, N-{(1RS, 2RS)-2-(4-Biphenylyl)-1-methyl-3-(2-naphthyl)propyl}carbamoylmethylsuccinic acid], the pIC50 was 8.33.
Under `C[C@H](NC(=O)C[C@@H](CC(=O)O)C(=O)O)[C@@H](Cc1ccc(Cl)c(Cl)c1)OC(=O)c1ccc2ccccc2c1` [Example 92, (2S)-2-[N-{(1S, 2R)-3-(3,4-dichlorophenyl)-1-methyl-2-(2-naphthoyloxy)propyl}carbamoylmethyl]succinic acid] stands 9.30.
In the case of `C[C@@H]([C@@H](Cc1ccc(Cl)c(Cl)c1)c1ccc(-c2ccccc2)cc1)N(C)C(=O)C[C@@H](CC(=O)O)C(=O)O` [Example 49, (2S)-2-[N-{(1S, 2S)-2-(4-Biphenylyl)-3-(3, 4dichlorophenyl) -1-methylpropyl}-N-methylcarbamoylmethyl]succinic acid], the pIC50 was 8.52.
Take `C[C@@H](NC(=O)CC(CC(=O)O)C(=O)O)[C@@H](/C=C/c1ccc2ccccc2c1)Cc1ccc(Cl)c(Cl)c1` (relative stereo) [Example 102, N-((1RS, 2RS, 3E)-2-(3,4-dichlorobenzyl)-1-methyl-4-(2-naphthyl)-3-butenyl)carbamoylmethylsuccinic acid]: the pIC50 is 8.77.
The result for `CC(CC(=O)O)CC(=O)N[C@H](C)[C@@H](/C=C/c1ccc2ccccc2c1)Cc1ccc(Cl)c(Cl)c1` (relative stereo) [Example 112, 4-{(1RS, 2RS, 3E)-2-(3,4-dichlorobenzyl)-1-1-methyl-4-(2-naphthyl)-3-butenylcarbamoyl}-3-methylbutanoic acid] reads 8.51.
Under `C[C@H](NC(=O)CC/C=C/C(=O)O)[C@@H](Cc1ccc(Cl)c(Cl)c1)c1ccc(-c2ccccc2)c(F)c1` [Example 70, (E)-5-[N-{(1S, 2S)-3-(3,4-Dichlorophenyl)-2-(2-fluoro-4-biphenylyl)-1-methylpropyl}carbamoyl]-2-pentenoic acid] stands 8.85; under `C[C@H](NC(=O)C[C@H](CC(=O)O)C(=O)O)[C@@H](Cc1ccc(Cl)cc1)c1ccc(-c2ccccc2)cc1` [Example 46 (2R-form), (2R)-2-[N-{(1S, 2S)-2-(4-biphenylyl)-3-(4-chlorophenyl)-1-methylpropyl} -carbamoylmethyl]succinic acid], 8.49.
The result for `C[C@@H](NC(=O)CC(CC(=O)O)C(=O)O)[C@H](Cc1ccc(Cl)cc1)c1ccc(-c2ccccc2)c(F)c1` (relative stereo) [Example 35, N-{(1RS, 2RS)-3-(4-Chlorophenyl)-2-(2-fluoro-4-biphenylyl)-1-methylpropyl}carbamoylmethylsuccinic acid] reads 8.27.

The values are drawn from US5488149A, “Substituted amic acid derivatives” (Banyu Pharmaceutical Co., Ltd., priority 1993, dated 1996).
